In ChEMBL document CHEMBL1201862, “PubChem BioAssay data set” (2004):
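Five concentrations, 48 hours, 96-well plates. Abbreviation: GI50, concentration required for 50% inhibition of growth.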 The source made the active and inactive calls. Rule as the data show it: active = GI50 up to about 1.1 µM and inactive = higher.

How the values were obtained:
Assay in all cases: NCI anticancer screen, dose series, 48 h
A498 = system: A498
EKVX = system: EKVX
HCC 2998 = system: HCC 2998
HCT-116 = system: HCT-116
HCT-15 = system: HCT-15
MDA-MB-435 = system: MDA-MB-435
MOLT-4 = system: MOLT-4
NCI-H522 = system: NCI-H522
OVCAR-4 = system: OVCAR-4
OVCAR-8 = system: OVCAR-8
PC-3 = system: PC-3
RPMI-8226 = system: RPMI-8226
SF-268 = system: SF-268
SK-MEL-2 = system: SK-MEL-2
SK-MEL-5 = system: SK-MEL-5
T47D = system: T47D
U-251 = system: U-251
UACC-62 = system: UACC-62

Q: What does the source list for `O=C1CSC(/C=C/c2ccccc2)N1c1ccc(-n2c(-c3ccccc3)nc3ccccc3c2=O)cc1` (stereo unspecified)?
A: GI50 (A498): > 100 µM (inactive); GI50 (EKVX): > 100 µM (inactive); GI50 (HCC 2998): 99.5 µM (inactive); GI50 (HCT-116): > 100 µM (inactive); GI50 (HCT-15): 86.9 µM; GI50 (MDA-MB-435): > 100 µM (inactive); GI50 (MOLT-4): 30.9 µM (inactive); GI50 (NCI-H522): 50.6 µM (inactive); GI50 (OVCAR-4): 19.4 µM (inactive); GI50 (OVCAR-8): > 100 µM (inactive); GI50 (PC-3): 61.2 µM (inactive); GI50 (RPMI-8226): > 100 µM (inactive); GI50 (SF-268): 95.5 µM (inactive); GI50 (SK-MEL-2): > 100 µM (inactive); GI50 (SK-MEL-5): 68.9 µM (inactive); GI50 (T47D): 17 µM (inactive); GI50 (U-251): > 100 µM (inactive); GI50 (UACC-62): 45.1 µM (inactive)

Q: Which results are given for `COc1cc(/C=[N+](\[O-])c2ccccc2Cl)ccc1OC(=S)S`?
A: GI50 (A498): 18.9 µM (inactive); GI50 (EKVX): 29.2 µM (inactive); GI50 (HCC 2998): 37 µM (inactive); GI50 (HCT-116): 32.5 µM (inactive); GI50 (HCT-15): 33.2 µM; GI50 (MDA-MB-435): 20.8 µM (inactive); GI50 (MOLT-4): 27 µM (inactive); GI50 (NCI-H522): 26.5 µM (inactive); GI50 (OVCAR-4): 3.01 µM (inactive); GI50 (OVCAR-8): 32.7 µM (inactive); GI50 (PC-3): 38.2 µM (inactive); GI50 (RPMI-8226): 29.2 µM (inactive); GI50 (SF-268): 42.7 µM (inactive); GI50 (SK-MEL-2): 32.5 µM (inactive); GI50 (SK-MEL-5): 16.6 µM (inactive); GI50 (T47D): 18.8 µM (inactive); GI50 (U-251): 38.5 µM (inactive); GI50 (UACC-62): 21 µM (inactive)

Q: For `C=CC[C@H](C)CCC(=O)N1[C@H]2CC3CC[C@@]2(CS1(=O)=O)C3(C)C`, which GI50 (A498) is on record?
A: > 100 µM (inactive)

Q: What about the GI50 (EKVX) of the same compound?
A: 51.1 µM (inactive)

Q: What about the GI50 (HCC 2998) of the same compound?
A: 49.2 µM (inactive)

Q: What about the GI50 (HCT-116) of the same compound?
A: 48 µM (inactive)

Q: And the GI50 (HCT-15)?
A: 25.5 µM

Q: What about the GI50 (MDA-MB-435) of the same compound?
A: 47.2 µM (inactive)

Q: What about the GI50 (MOLT-4) of the same compound?
A: 17.3 µM (inactive)

Q: And the GI50 (NCI-H522)?
A: 30.3 µM (inactive)

Q: And the GI50 (OVCAR-4)?
A: 39.5 µM (inactive)

Q: What about the GI50 (OVCAR-8) of the same compound?
A: 45.4 µM (inactive)

Q: And the GI50 (PC-3)?
A: 40.3 µM (inactive)

Q: What about the GI50 (RPMI-8226) of the same compound?
A: 39.9 µM (inactive)

Q: And the GI50 (SF-268)?
A: 41.7 µM (inactive)

Q: What about the GI50 (SK-MEL-2) of the same compound?
A: 50.2 µM (inactive)

Q: What about the GI50 (SK-MEL-5) of the same compound?
A: 21.5 µM (inactive)

Q: What about the GI50 (T47D) of the same compound?
A: 42.6 µM (inactive)

Q: What about the GI50 (U-251) of the same compound?
A: 56.1 µM (inactive)

Q: What about the GI50 (UACC-62) of the same compound?
A: > 100 µM (inactive)

Q: Which results are given for `O=C(O)c1nc(-c2ccccn2)c(-c2ccccn2)nc1C(=O)O`?
A: GI50 (A498): 1.61 µM (inactive); GI50 (EKVX): 1.88 µM (inactive); GI50 (HCC 2998): 0.773 µM (active); GI50 (HCT-116): 1.67 µM (inactive); GI50 (HCT-15): 0.384 µM; GI50 (MDA-MB-435): 3.62 µM (inactive); GI50 (MOLT-4): 2.3 µM (inactive); GI50 (NCI-H522): 4.28 µM (inactive); GI50 (OVCAR-4): 2 µM (inactive); GI50 (OVCAR-8): 3.44 µM (inactive); GI50 (PC-3): 4.47 µM (inactive); GI50 (RPMI-8226): 2.86 µM (inactive); GI50 (SF-268): 3.31 µM (inactive); GI50 (SK-MEL-2): 4.95 µM (inactive); GI50 (SK-MEL-5): 1.28 µM (inactive); GI50 (T47D): 5.19 µM (inactive); GI50 (U-251): 1.77 µM (inactive); GI50 (UACC-62): 2.1 µM (inactive)

Q: `O=c1[nH]nc(Cc2ccccc2)n1/N=C/c1c[nH]c2ccccc12` was tested. Which GI50 (A498) did it give?
A: > 100 µM (inactive)

Q: And the GI50 (EKVX)?
A: 95.1 µM (inactive)

Q: What about the GI50 (HCC 2998) of the same compound?
A: > 100 µM (inactive)

Q: What about the GI50 (HCT-116) of the same compound?
A: > 100 µM (inactive)

Q: And the GI50 (HCT-15)?
A: > 100 µM

Q: And the GI50 (MDA-MB-435)?
A: 81.7 µM (inactive)

Q: And the GI50 (MOLT-4)?
A: > 100 µM (inactive)

Q: What about the GI50 (NCI-H522) of the same compound?
A: 22.9 µM (inactive)

Q: And the GI50 (OVCAR-4)?
A: 42.5 µM (inactive)

Q: What about the GI50 (OVCAR-8) of the same compound?
A: > 100 µM (inactive)

Q: And the GI50 (PC-3)?
A: 92 µM (inactive)

Q: And the GI50 (RPMI-8226)?
A: > 100 µM (inactive)

Q: What about the GI50 (SF-268) of the same compound?
A: 21.9 µM (inactive)

Q: And the GI50 (SK-MEL-2)?
A: > 100 µM (inactive)

Q: What about the GI50 (SK-MEL-5) of the same compound?
A: > 100 µM (inactive)

Q: And the GI50 (T47D)?
A: > 100 µM (inactive)

Q: And the GI50 (U-251)?
A: 52.1 µM (inactive)

Q: And the GI50 (UACC-62)?
A: 41.6 µM (inactive)

Q: What does the source list for `CN(C)/C=N/NC(=O)/C(C#N)=C/N(C)C`?
A: GI50 (A498): > 100 µM (inactive); GI50 (EKVX): > 100 µM (inactive); GI50 (HCC 2998): > 100 µM (inactive); GI50 (HCT-116): > 100 µM (inactive); GI50 (HCT-15): > 100 µM; GI50 (MDA-MB-435): > 100 µM (inactive); GI50 (MOLT-4): > 100 µM (inactive); GI50 (NCI-H522): > 100 µM (inactive); GI50 (OVCAR-4): > 100 µM (inactive); GI50 (OVCAR-8): > 100 µM (inactive); GI50 (PC-3): > 100 µM (inactive); GI50 (RPMI-8226): > 100 µM (inactive); GI50 (SF-268): > 100 µM (inactive); GI50 (SK-MEL-2): > 100 µM (inactive); GI50 (SK-MEL-5): > 100 µM (inactive); GI50 (T47D): > 100 µM (inactive); GI50 (U-251): > 100 µM (inactive); GI50 (UACC-62): > 100 µM (inactive)

Q: `COc1cc2c(cc1OCCCC(=O)Nc1cc(C(=O)Nc3cc(C(=O)Nc4cc(C(=O)NCCCN(C)C)n(C)n4)n(C)n3)n(C)n1)N=CC1CCCN1C2=O` (stereo unspecified) was tested. Which GI50 (A498) did it give?
A: 23 µM (inactive)

Q: What about the GI50 (EKVX) of the same compound?
A: > 100 µM (inactive)

Q: What about the GI50 (HCC 2998) of the same compound?
A: 41.9 µM (inactive)

Q: And the GI50 (HCT-116)?
A: 60.8 µM (inactive)

Q: What about the GI50 (HCT-15) of the same compound?
A: 5.69 µM

Q: What about the GI50 (MDA-MB-435) of the same compound?
A: 20.1 µM (inactive)

Q: And the GI50 (MOLT-4)?
A: 3.01 µM (inactive)

Q: What about the GI50 (NCI-H522) of the same compound?
A: 1.69 µM (inactive)

Q: What about the GI50 (OVCAR-4) of the same compound?
A: 16.1 µM (inactive)

Q: What about the GI50 (OVCAR-8) of the same compound?
A: 32 µM (inactive)

Q: What about the GI50 (PC-3) of the same compound?
A: 31.3 µM (inactive)

Q: And the GI50 (RPMI-8226)?
A: 5.74 µM (inactive)

Q: And the GI50 (SF-268)?
A: 31.2 µM (inactive)

Q: What about the GI50 (SK-MEL-2) of the same compound?
A: 24.8 µM (inactive)

Q: What about the GI50 (SK-MEL-5) of the same compound?
A: 19.5 µM (inactive)

Q: What about the GI50 (T47D) of the same compound?
A: 56 µM (inactive)

Q: What about the GI50 (U-251) of the same compound?
A: 9.77 µM (inactive)

Q: What about the GI50 (UACC-62) of the same compound?
A: 20.3 µM (inactive)
